Legend:
[1] = tested on: HDAC4; assay type: cell-based, human; settings: TAg Jurkat cells treated 1.5 hours; for HDAC activity of the purified HDAC4 complex: immunoprecipitate
Source text: (§1) In addition, an increase in the overall HDAC activity of the purified complex was observed (FIG. 9A).
HDAC4 (SEQ ID NO:2) also contains a nuclear localization sequence (Hicks and Raikhel, 1995). In order to determine if the interaction with 14-3-3 blocks binding of the importin heterodimer, recombinant FLAG-tagged HDAC4 (SEQ ID NO:2) was immunoprecipitated from untreated, staurosporine-, and calyculin A-treated TAg-Jurkat cells and analyzed for binding to importin □ by Western blotting.
(§2) Cells were harvested 48 hours post-transfection. When required, cells were treated with 200 µM staurosporin (Calbiochem) or 20 nM calyculin A (Calbiochem) for 1.5 hours prior to harvesting.

[2] = tested on: HDAC5; assay type: cell-based, human; settings: TAg Jurkat cells treated 1.5 hours; for HDAC5 association with HDAC3 / binding of HDAC5 to either 14-3-3 isoform: Western blot; for HDAC activity of the purified HDAC5 complex: immunoprecipitate
Protocol: as §1, §2

[3] = biological target: T1, HDAC6 (Homo sapiens, UniProt Q9UBN7); assay: in vitro HDAC assay, release of 3H-acetate from labeled histones by immunoprecipitated FLAG-tagged HDAC6; assay type: biochemical; settings: 300 nM TSA, 10 minutes prior to addition of labeled histones
T1 construct: made in house; host or cells: Sf9 insect cells (baculovirus, pVL1392, Baculogold)
T1 sequence (Q9UBN7 1-1215 T994I): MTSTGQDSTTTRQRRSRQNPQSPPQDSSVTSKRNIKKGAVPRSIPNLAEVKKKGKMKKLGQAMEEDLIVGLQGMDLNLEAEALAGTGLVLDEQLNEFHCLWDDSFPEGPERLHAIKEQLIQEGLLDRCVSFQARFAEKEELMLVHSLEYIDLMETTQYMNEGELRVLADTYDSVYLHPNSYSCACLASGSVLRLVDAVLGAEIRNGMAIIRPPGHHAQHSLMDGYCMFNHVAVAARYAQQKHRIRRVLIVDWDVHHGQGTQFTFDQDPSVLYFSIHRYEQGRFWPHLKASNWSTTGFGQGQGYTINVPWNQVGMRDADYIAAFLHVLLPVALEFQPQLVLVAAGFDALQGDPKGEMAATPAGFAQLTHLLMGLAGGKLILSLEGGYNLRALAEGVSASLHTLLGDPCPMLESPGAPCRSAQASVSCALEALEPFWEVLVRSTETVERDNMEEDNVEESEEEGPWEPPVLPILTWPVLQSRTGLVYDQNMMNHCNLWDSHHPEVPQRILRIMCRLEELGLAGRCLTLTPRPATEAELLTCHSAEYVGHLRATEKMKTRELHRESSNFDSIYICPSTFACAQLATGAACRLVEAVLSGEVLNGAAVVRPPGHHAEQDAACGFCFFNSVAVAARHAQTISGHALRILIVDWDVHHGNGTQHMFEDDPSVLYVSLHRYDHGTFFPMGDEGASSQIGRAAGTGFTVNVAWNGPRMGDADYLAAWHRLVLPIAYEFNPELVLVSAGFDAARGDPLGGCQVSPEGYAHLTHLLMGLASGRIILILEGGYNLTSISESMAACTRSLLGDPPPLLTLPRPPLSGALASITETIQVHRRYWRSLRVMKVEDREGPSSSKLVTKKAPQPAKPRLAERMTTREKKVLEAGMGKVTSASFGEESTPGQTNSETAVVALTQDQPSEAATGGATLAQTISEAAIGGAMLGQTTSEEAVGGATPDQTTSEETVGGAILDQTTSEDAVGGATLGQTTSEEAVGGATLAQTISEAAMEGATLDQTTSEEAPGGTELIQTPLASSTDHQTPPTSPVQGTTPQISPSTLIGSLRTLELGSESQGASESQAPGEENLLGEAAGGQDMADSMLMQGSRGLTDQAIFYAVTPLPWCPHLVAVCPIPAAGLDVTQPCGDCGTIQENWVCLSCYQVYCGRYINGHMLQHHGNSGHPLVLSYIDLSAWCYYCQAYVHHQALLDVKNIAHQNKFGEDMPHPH
Protocol: (§3) C. In Vitro Histone Deacetylase Activity of Class II HDACs.
(§4) FLAG-tagged HDAC1 and HDAC6 were expressed in TAg Jurkat cells and purified by immunoprecipitation using the anti-FLAG antibody. […] The proteins were used in in vitro HDAC assays with the compounds identified in the screen, using concentration of approximately 50 μM.
(§5) E. Histone isolation and substrate specificity determination. […] F. HDAC6 Mutagenesis. […] G. Cell culture and transfections. […] Cells were harvested 48 hours post-transfection. H. DNA Constructs

[4] = biological target: HDAC4 (Homo sapiens, UniProt P56524); settings: 300 nM TSA, 10 minutes prior to addition of labeled histones
Source text: (§6) The NCBI database was screened with the yeast Hda1p amino acid sequence to identify human homologs. The complete ORFs of HDAC 4 (SEQ ID NO:2), 5 (SEQ ID NO:4), and 6 (SEQ ID NO:6) were constructed as described in Methods. […] The two catalytic regions in HDAC6 (SEQ ID NO:6) are highly homologous to each other (47% identity, 64% similarity) and therefore the protein may have arisen evolutionarily from an in frame gene duplication event. […] C. In Vitro Histone Deacetylase Activity of Class II HDACs.

[5] = biological target: HDAC5 (Homo sapiens, UniProt Q9UQL6); settings: 300 nM TSA, 10 minutes prior to addition of labeled histones
Source text: as §6

[6] = biological target: T2, HDAC1 (Homo sapiens, UniProt Q13547); assay: in vitro HDAC assay, release of 3H-acetate from labeled histones by immunoprecipitated FLAG-tagged HDAC1; assay type: biochemical; settings: 300 nM TSA, 10 minutes prior to addition of labeled histones
T2 construct: made in house; host or cells: Sf9 insect cells (baculovirus, pVL1392)
Protocol: as §3, §4, §5

Chain of HDAC4 (Homo sapiens, UniProt P56524) (P56524 whole entry A373T): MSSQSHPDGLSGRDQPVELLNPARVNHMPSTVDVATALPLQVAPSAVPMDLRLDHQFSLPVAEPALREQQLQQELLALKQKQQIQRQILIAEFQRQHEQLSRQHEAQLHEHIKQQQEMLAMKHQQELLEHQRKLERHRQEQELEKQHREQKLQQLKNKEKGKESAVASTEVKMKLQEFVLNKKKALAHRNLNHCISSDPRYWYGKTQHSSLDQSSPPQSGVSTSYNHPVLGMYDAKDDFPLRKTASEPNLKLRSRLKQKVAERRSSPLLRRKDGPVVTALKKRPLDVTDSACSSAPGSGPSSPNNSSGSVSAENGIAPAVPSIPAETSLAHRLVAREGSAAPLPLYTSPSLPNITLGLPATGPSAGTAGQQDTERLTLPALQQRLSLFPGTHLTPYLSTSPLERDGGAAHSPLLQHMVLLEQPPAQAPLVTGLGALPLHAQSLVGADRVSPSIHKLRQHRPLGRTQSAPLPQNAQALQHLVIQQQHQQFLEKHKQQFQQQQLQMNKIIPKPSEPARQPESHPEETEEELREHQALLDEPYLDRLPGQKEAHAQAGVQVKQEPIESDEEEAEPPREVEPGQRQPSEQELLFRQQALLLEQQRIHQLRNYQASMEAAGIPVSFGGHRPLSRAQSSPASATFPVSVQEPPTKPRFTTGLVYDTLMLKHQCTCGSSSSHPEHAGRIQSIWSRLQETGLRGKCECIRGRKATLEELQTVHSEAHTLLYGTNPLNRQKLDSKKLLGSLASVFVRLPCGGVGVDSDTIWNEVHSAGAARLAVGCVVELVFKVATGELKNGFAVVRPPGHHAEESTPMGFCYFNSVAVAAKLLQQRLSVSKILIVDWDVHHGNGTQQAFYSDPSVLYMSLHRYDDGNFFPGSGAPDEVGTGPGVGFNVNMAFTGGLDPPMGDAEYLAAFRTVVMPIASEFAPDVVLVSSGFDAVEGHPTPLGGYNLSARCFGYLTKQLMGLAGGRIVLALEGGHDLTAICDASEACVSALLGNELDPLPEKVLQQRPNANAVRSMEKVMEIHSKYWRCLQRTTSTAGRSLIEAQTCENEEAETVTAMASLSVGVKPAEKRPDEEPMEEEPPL
Chain of HDAC5 (Homo sapiens, UniProt Q9UQL6) (Q9UQL6 whole entry D593E): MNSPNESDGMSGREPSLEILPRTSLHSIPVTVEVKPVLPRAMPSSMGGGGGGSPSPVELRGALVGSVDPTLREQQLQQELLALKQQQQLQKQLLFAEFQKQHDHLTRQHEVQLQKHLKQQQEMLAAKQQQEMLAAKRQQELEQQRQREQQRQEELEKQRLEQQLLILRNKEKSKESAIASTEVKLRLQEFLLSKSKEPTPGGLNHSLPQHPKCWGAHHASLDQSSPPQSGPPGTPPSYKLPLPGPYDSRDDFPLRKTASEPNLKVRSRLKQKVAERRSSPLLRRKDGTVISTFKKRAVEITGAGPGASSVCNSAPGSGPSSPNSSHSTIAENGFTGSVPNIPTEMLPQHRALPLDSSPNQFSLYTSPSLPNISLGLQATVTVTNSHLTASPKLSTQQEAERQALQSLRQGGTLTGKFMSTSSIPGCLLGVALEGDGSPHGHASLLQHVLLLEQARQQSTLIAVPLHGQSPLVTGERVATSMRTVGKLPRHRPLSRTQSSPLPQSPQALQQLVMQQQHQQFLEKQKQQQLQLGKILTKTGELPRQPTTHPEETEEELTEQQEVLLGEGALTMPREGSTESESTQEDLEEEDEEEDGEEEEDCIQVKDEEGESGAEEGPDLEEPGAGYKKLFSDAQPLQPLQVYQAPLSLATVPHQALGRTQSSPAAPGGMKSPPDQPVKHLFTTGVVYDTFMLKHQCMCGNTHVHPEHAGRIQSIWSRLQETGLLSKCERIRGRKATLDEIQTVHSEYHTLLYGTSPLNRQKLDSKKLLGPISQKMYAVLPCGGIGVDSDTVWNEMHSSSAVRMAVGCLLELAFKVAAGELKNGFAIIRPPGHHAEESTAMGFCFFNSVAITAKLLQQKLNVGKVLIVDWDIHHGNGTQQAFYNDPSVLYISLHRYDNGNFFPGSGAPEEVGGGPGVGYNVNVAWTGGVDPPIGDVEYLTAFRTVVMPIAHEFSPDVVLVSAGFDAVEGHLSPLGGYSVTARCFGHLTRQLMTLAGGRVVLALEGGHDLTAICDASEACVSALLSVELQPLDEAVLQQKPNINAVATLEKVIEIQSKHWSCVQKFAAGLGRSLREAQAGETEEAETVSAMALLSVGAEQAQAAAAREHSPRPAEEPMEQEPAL
T2 sequence (Q13547 whole entry): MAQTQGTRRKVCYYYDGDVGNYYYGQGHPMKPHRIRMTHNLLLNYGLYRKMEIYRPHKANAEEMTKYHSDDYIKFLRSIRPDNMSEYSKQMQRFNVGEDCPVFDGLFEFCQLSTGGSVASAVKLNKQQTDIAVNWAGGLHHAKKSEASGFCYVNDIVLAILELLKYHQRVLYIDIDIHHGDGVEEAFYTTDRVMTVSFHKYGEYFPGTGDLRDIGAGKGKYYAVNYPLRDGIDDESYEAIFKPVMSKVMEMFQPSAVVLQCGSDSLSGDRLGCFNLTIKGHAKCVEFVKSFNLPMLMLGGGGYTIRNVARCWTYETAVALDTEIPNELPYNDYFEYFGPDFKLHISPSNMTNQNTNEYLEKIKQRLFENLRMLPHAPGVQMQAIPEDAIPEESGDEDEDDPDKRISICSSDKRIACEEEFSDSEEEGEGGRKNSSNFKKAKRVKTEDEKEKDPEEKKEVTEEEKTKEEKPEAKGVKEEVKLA

Row | HDAC6 deacetylation activity in the presence of TSA [3] | HDAC4 deacetylation activity in the presence of TSA [4] | HDAC5 deacetylation activity in the presence of TSA [5] | HDAC1 deacetylation activity in the presence of TSA [6] | Compound | HDAC4 association with HDAC3 ([1]; Western blot) | binding of HDAC4 to either 14-3-3 isoform ([1]; Western blot) | HDAC activity of the purified HDAC4 complex [1] | HDAC5 association with HDAC3 [2] | binding of HDAC5 to either 14-3-3 isoform [2] | HDAC activity of the purified HDAC5 complex [2] | HDAC4 association with importin α ([1]; Western blot)
1 |  |  |  |  | CN[C@@H]1C[C@H]2O[C@@](C)([C@@H]1OC)n1c3ccccc3c3c4c(c5c6ccccc6n2c5c31)C(=O)NC4 [staurosporine] | increase | decrease | increase | increase | decrease | increase | 
2 | greatly reduced | greatly reduced | greatly reduced | greatly reduced | CC(/C=C/C(=O)NO)=C\[C@@H](C)C(=O)c1ccc(N(C)C)cc1 [TSA, trichostatin A] |  |  |  |  |  |  | 
3 |  |  |  |  | COC[C@@H]([C@H](O)[C@H](O)C(=O)NCC[C@H](C)c1nc(/C=C/C[C@@H]2O[C@]3(C[C@@H](O)[C@@H]2C)O[C@H]([C@H](C[C@H](O)[C@H](C)[C@H](O)[C@H](C)/C=C(C)/C(C)=C/C=C/C(C)=C\C#N)OC)[C@H](OP(=O)(O)O)C3(C)C)co1)N(C)C [calyculin A] | loss of interaction | increase | dramatic reduction | loss of interaction | increase | dramatic reduction | fails to associate

— patent US8076116B2, “Nucleic acids encoding class II human histone deacetylases, and uses related thereto” (priority 2000, dated 2011)
